Reference: patent US20190124918A1, “BIOFILM FORMATION INHIBITOR AND BIOFILM FORMATION INHIBITING COMPOSITION” (KAO CORPORATION, priority 2016, published 2019)

Key:
[1] = system: Pseudomonas PAO1 strain (ATCC 15692); assay: Growth of test microbe (turbidity OD600), 96-well microplate culture; type: cell-based; settings: Pseudomonas; for inhibition at 22 ppm: final concentration 22 ppm; for inhibition at 44 ppm: final concentration 44 ppm; for inhibition at 89 ppm: final concentration 89 ppm; for inhibition at 133 ppm: final concentration 133 ppm; for inhibition at 155 ppm: final concentration 155 ppm; for inhibition at 177 ppm: final concentration 177 ppm
Description: (§1) Pseudomonas PAO1 strain (ATCC 15692) was subjected to stationary culture performed in LB culture medium (Lysogeny Broth; manufactured by Becton Dickinson) at 37° C. for 24 hours. The turbidity (OD600) of the culture solution was measured. The culture solution was diluted with Mueller Hinton Broth (BBL made) to prepare a suspension (15 mL) having a turbidity (OD600) of 1/10^6.
To each of the wells of a 96-well microplate (351172; manufactured by Japan Becton Dickinson), 6 μL of DMSO (Tokyo Chemical Industry Co. Ltd) and an ethanol solution (1 μL, 3 μL or 5 μL) of a test compound were added. After that, the microplate was allowed to stand still at room temperature for 5 hours to evaporate ethanol. The suspension of Pseudomonas microbe prepared in the above step 1) was added in an amount of 145 μL per well and culture was initiated. As the test compound, 2-methylhydroquinone (Sigma Aldrich) and p-toluquinone (Tokyo Kasei) were used. As a reference compound, sodium hypochlorite (manufactured by Wako Pure Chemical Industries Ltd.) was used. As a control, an ethanol solvent (EtOH control) alone was used. The concentration of the test compound in the ethanol solution is 1,000 ppm or 10,000 ppm and the final concentration of the test compound in the culture solution was about from 7 to 333 ppm.
(§2) After the 96-well microplate was subjected to stationary culture performed at 30° C. for 24 hours, turbidity (OD600) was measured to check growth. Subsequently, individual wells were stained with 0.1% crystal violet and thoroughly washed twice with physiological saline. To each well, 200 μL of ethanol was added and the absorbance (OD570) was measured to obtain the amount of the biofilm formed.
Compounds listed in Table 3 were each added to a test microbe and culture was conducted by the same procedure as in Test Example 1 and the amount of growth (OD600) and the amount of biofilm formed (OD570) were measured. For compounds a, b, c, f, h, i, J and k, 20 mM ethanol solutions were prepared; whereas for compounds d, e, g, 5 mM ethanol solutions were prepared. The solutions were each added to a 96-well microplate in an amount of 1 to 8 μL and evaluation was made. The final concentrations of the individual compounds are described in Table 3.
(§3) Growth inhibition rates relative to the control (ethanol alone) were calculated based on OD600 values measured and in accordance with the following expression. In addition, biofilm (BF) formation inhibition rates relative to the control (ethanol alone) were calculated based on OD570 values and in accordance with the following expression:
Growth inhibition (%)=(1−(compound addition group OD600/control group OD600))×100
(§4) As a control, an ethanol solvent alone was used (EtOH control). The concentrations of test compounds in the ethanol solution were as follows: test compound 1: 20 mM, test compounds 2 to 7: 100 mM. To each of the wells of a 96-well microplate (351172; manufactured by Japan Becton Dickinson), 6 μL of DMSO (Tokyo Kasei) and an ethanol solution of each test compound (1 to 8 μL) were added and then the microplates were allowed to stand still at room temperature for 5 hours to evaporate ethanol. A suspension solution of a Pseudomonas microbe prepared in the same procedure as in Test Example 1, 1) was added in an amount of 145 μL per well and culture was initiated.
as §2, with “culture” for “culture performed”, “formed. The growth inhibition rate and biofilm (BF) formation inhibition rate were calculated based on OD600 and OD570 values measured and in accordance with the expressions used in Test Example 2.” for “formed.”

[2] = system: Pseudomonas PAO1 strain (ATCC 15692); assay: Amount of biofilm formed (crystal violet, OD570), 96-well microplate culture; type: cell-based; settings: Pseudomonas, read-out: BF inhibition (%); for inhibition at 22 ppm: final concentration 22 ppm; for inhibition at 44 ppm: final concentration 44 ppm; for inhibition at 89 ppm: final concentration 89 ppm; for inhibition at 133 ppm: final concentration 133 ppm; for inhibition at 155 ppm: final concentration 155 ppm; for inhibition at 177 ppm: final concentration 177 ppm
Description: as §1, with “1/10^6. […]” for “1/10^6.”
as §3
BF inhibition (%)={1−(compound addition group OD570/control group OD570)}×100
as §4
as §2, with “culture” for “culture performed”, “formed. The growth inhibition rate and biofilm (BF) formation inhibition rate were calculated based on OD600 and OD570 values measured and in accordance with the expressions used in Test Example 2.” for “formed.”

[3] = system: cooling water taken from a water cooling tower; assay: Aqueous system model (annular reactor): amount of biofilm formed on test pieces (OD570); type: cell-based; settings: Test Example 5; same procedure as Test Example 4; solvent control finally beyond 1.0
Description: (§5) Biofilm formation inhibitory activity of p-toluquinone (Tokyo Kasei) was evaluated by an aqueous system model using an annular reactor (Art Science Co., Ltd.) having a 100 mL-volume culture tank. In the culture tank of the annular reactor, a cylindrical rotating body rotating at a speed of 160 rounds per minute was installed. To the rotating body, 12 test pieces were attached in advance. These test pieces were taken out at predetermined time intervals and biofilm formed on the test pieces was quantified. From a water cooling tower provided on a building rooftop and actually used, cooling water was taken and supplied to the annular reactor culture vessel (maintained at 30° C.) at a flow rate of 10 mL per minute; at the same time, an ethanol solution (15 g/L) of p-toluquinone was separately supplied to the annular reactor culture vessel by a syringe pump YSP-201 (manufactured by YMC) at a flow rate of 10 μL per minute (p-toluquinone concentration in cooling water in the culture tank was 15 ppm). The test pieces (n=2) taken out from the culture tank at predetermined time intervals were stained with 0.1% crystal violet, thoroughly washed twice with physiological saline and recovered in ethanol (15 mL). The absorbance (OD570) was measured to obtain the amount of the biofilm formed. […] Thereafter, the number of bacteria cells was measured. […]

[4] = system: cooling water taken from a water cooling tower; assay: Aqueous system model (annular reactor): number of bacterial cells in water at inlet and outlet (R2A agar); type: cell-based; settings: Test Example 5; same procedure as Test Example 4; solvent control also about 10^4
Description: as §5

[5] = system: biofilm-forming microbe isolated from cooling water taken from a water cooling tower; assay: Biofilm inhibition test, quinone-based compound and organic solvent (OD570); type: cell-based; settings: for OD570: alone or added as test solution in Diacetone alcohol, no addition gave 2.15
Description: (§6) A biofilm-forming microbe (microbe providing a OD570 value of 0.3 or more in the test for determining the amount of biofilm in the following section 4-3) isolated from cooling water taken from a water cooling tower was cultured in R2A culture medium at 30° C. for 16 hours while shaking. The turbidity (OD600) of the resultant culture solution was measured. The culture solution was diluted with R2A culture medium to prepare a suspension of 10^3 cfu/mL.
The suspension of a test microbe prepared in the above section 4-1) was added in individual wells of a 96 well microplate in an amount of 150 μL. Thereafter, the test solution prepared in the above section 2) was add and culture was initiated.
(§7) The 96 well microplate was subjected to stationary culture performed at 30° C. for 48 hours. The culture solution was removed and the resultant microplate was washed with water. Subsequently, each well was stained with 0.1% crystal violet and 200 μL of ethanol was added. The absorbance (OD570) was measured to obtain the amount of biofilm (BF) formed.

B. coli = settings: to B. coli; Non Patent Literature 4; cited from earlier work
[6] = Dissolution in solvent (MDG) when preparing compositions; type: physicochemical; settings: preparation of compositions
Description: (§8) Predetermined amounts of p-toluquinone and HEDP were weighed and solvent (MDG) was added to prepare a composition. Since citric acid and EDTA were not dissolved in MDG, they were directly added in culture solutions; at the same time, p-toluquinone was directly added to the culture solutions.

[7] = system: biofilm-forming microbe isolated from cooling water taken from a water cooling tower; assay: Biofilm inhibition test, quinone-based compound and chelating agent (OD570); type: cell-based; settings: Experiment No. 19: Toluquinone 0 ppm, Citric acid 10 ppm; 0 ppm/0 ppm gave 0.329
Description: as §6, with “(microbe showing” for “(microbe providing”, “biofilm (the” for “biofilm in the”, “section 2-4))” for “section 4-3)”
as §8
The suspension of a test microbe prepared in the above section 2-1) was added in individual wells of a 96 well microplate in an amount of 150 μL, and then, the test solutions prepared in the above section 2-2) was each added and culture was initiated.
as §7, with “After the 96” for “The 96”, “48 hours, the” for “48 hours. The”

What does the source list for `CCCCc1ccc(O)cc1O` [Compound 1, 4-Butylresorcinol]?
inhibition at 22 ppm ([1]; Test Example 3): < 0%; inhibition at 44 ppm ([1]; Test Example 3): < 0%; inhibition at 89 ppm ([1]; Test Example 3): < 0%; inhibition at 133 ppm ([1]; Test Example 3): < 0%; inhibition at 155 ppm ([1]; Test Example 3): 42.8%; inhibition at 177 ppm ([1]; Test Example 3): 32.7%; inhibition at 22 ppm ([2]; Test Example 3): 0.5%; inhibition at 44 ppm ([2]; Test Example 3): 18.3%; inhibition at 89 ppm ([2]; Test Example 3): 4.5%; inhibition at 133 ppm ([2]; Test Example 3): 12.9%; inhibition at 155 ppm ([2]; Test Example 3): 54.9%; inhibition at 177 ppm ([2]; Test Example 3): 45.9%; amount of the biofilm formed (OD570) [3]: ≤ 0.4; number of bacterial cells at the inlet or outlet of the reactor [4]: about 10^4 cells/mL

With `CCCCCCc1ccc(O)cc1O` [4-Hexylresorcinol] as the molecule, how does the OD570 ([5]; 4-Hexylresorcinol 10 ppm) read?
Its OD570 is 1.49.

What about the OD570 ([5]; 4-Hexylresorcinol 20 ppm) of the same molecule?
Its OD570 is 0.10.

Which results are given for `CC(C)(C)c1cc(O)ccc1O` [c, tert-Butylhydroquinone]?
inhibition at 22 ppm [1]: < 0%; inhibition at 44 ppm [1]: 5.3%; inhibition at 89 ppm [1]: 9.5%; inhibition at 133 ppm [1]: < 0%; inhibition at 155 ppm [1]: 11.8%; inhibition at 177 ppm [1]: 13.3%; inhibition at 22 ppm [2]: 34.8%; inhibition at 44 ppm [2]: 22.5%; inhibition at 89 ppm [2]: 32.5%; inhibition at 133 ppm [2]: 50%; inhibition at 155 ppm [2]: 69.3%; inhibition at 177 ppm [2]: 64.8%; minimum inhibitory concentration (MIC) (B. coli): 512 ppm

Which “dissolution in MDG (diethylene glycol monomethyl ether)” value [6] does the source give for `O=C(O)CN(CCN(CC(=O)O)CC(=O)O)CC(=O)O` [EDTA, Ethylenediaminetetraacetic acid] here?
Its value is “not dissolved”.

With `O=C(O)CC(O)(CC(=O)O)C(=O)O` [Citric acid] as the molecule, how does the OD570 [7] read?
Its OD570 is 0.261.

And the “dissolution in MDG (diethylene glycol monomethyl ether)” value [6]?
The value was “not dissolved”.

For `CC1=CC(=O)C=C(C)C1=O` [i, 3,5-Dimethylbenzoquinone], which inhibition at 18 ppm ([1]; final concentration 18 ppm) is on record?
Its inhibition at 18 ppm is 5.3%.

What about the inhibition at 36 ppm ([1]; final concentration 36 ppm) of the same molecule?
The inhibition at 36 ppm was less than 0%.

What about the inhibition at 72 ppm ([1]; final concentration 72 ppm) of the same molecule?
The inhibition at 72 ppm was 29.7%.

And the inhibition at 109 ppm ([1]; final concentration 109 ppm)?
The inhibition at 109 ppm was 33.5%.

What about the inhibition at 127 ppm ([1]; final concentration 127 ppm) of the same molecule?
The inhibition at 127 ppm was 33.7%.

And the inhibition at 145 ppm ([1]; final concentration 145 ppm)?
Its inhibition at 145 ppm is 37.7%.

What about the inhibition at 18 ppm ([2]; final concentration 18 ppm) of the same molecule?
Its inhibition at 18 ppm is 17.2%.

And the inhibition at 36 ppm ([2]; final concentration 36 ppm)?
Its inhibition at 36 ppm is 26.2%.

What about the inhibition at 72 ppm ([2]; final concentration 72 ppm) of the same molecule?
Its inhibition at 72 ppm is 29.4%.

What about the inhibition at 109 ppm ([2]; final concentration 109 ppm) of the same molecule?
Its inhibition at 109 ppm is 54%.

And the inhibition at 127 ppm ([2]; final concentration 127 ppm)?
Its inhibition at 127 ppm is 60.9%.

And the inhibition at 145 ppm ([2]; final concentration 145 ppm)?
Its inhibition at 145 ppm is 55.8%.

Which “decrease of BF formation inhibitory effect of the quinone-based compound by the organic solvent (in words)” value ([5]; from the results in Table 13, among the organic solvents tested) does the source give for `OCCOCCO` [diethylene glycol] here?
Its value is “lowest”.
